Results from patent US10501801B2, “Identification of tumor-protective epitopes for the treatment of cancers” (THE UNIVERSITY OF CONNECTICUT, priority 2012, dated 2019).
Like-named read-outs stand apart in the source and are kept apart here. Ends that are not written are not given here.

Target: H-2 K^d (Mus musculus, UniProt P01902)
Assay: Binding of peptides to purified H-2 K^d (inhibition of radiolabeled standard peptide)
Protocol: Binding assays. Binding of peptides to H-2 K^d was determined using quantitative assays based on the inhibition of binding of a radiolabeled standard peptide to purified MHC molecules, essentially as known in the art. […] Under the conditions utilized, where [label]<[MHC] and IC50≥[MHC], the measured IC50 values are reasonable approximations of the KD values.

[1] = wild type counterpart peptide, Table 5, read-out: Measured IC50 for K^d Mut/WT: WT
[2] = wild type counterpart peptide, Table 4, read-out: Measured IC50 for K^d Mut/WT: WT
[3] = mutated peptide, Table 5, read-out: Measured IC50 for K^d Mut/WT: Mut

| IC50 [1] [µM] | Compound | IC50 [µM] | also measured |
| --- | --- | --- | --- |
| – | CC[C@H](C)[C@H](N)C(=O)N[C@@H](Cc1ccc(O)cc1)C(=O)NCC(=O)N[C@H](C(=O)N[C@H](C(=O)N[C@@H](C)C(=O)N[C@@H](CCCNC(=N)N)C(=O)N[C@@H](CC(N)=O)C(=O)N[C@@H](CCCNC(=N)N)C(=O)N[C@@H](C)C(=O)N[C@@H](CC(C)C)C(=O)O)C(C)C)C(C)C [Dis312.1, I(y/D)GVVARNRAL] | > 70 | – |
| > 70 | ALKSEEKTL [Stau1.4] | – | – |
| – | AYAKQFAA [Ube4a.2, A(y/D)AKQFAA] | > 70 | – |
| > 70 | AYAKQFAAI [Ube4a.1, A(y/D)AKQFAAI] | – | – |
| – | AYCETCWE(l/W) (AYCETCWEL; not fully specified; printed as AYCETCWE(l/W); cysteine pairing not given here; listed as Mus musculus) [Apc] | – | IC50 [2]: 0.06 µM |
| – | AYILAALTKL [Trim26.1] | 0.0011 | – |
| – | AYILAALTKLQ [Trim26.2] | > 70 | – |
| > 70 | AYILAALTKLQ [Zfp236.2, E(y/D)LDLQTQG] | – | IC50 [3]: 10 µM |
| > 70 | AYRLEGDRS [Dcaf6, A(y/D)RLEGDRS] | – | IC50 [3]: > 70 µM |
| – | CYAKVKEQL [Ssx2ip, CYAK(v/L)KEQL] | – | IC50 [2]: 0.0032 µM |
| – | D(y/D)VPMEQPRP (DYVPMEQPRP; not fully specified; listed as Mus musculus) [Alkbh6.3] | – | IC50 [3]: > 70 µM |
| 2.96 | D(y/D)VPMEQPRPP (DYVPMEQPRPP; not fully specified; listed as Mus musculus) [Alkbh6.4] | – | – |
| > 70 | DYVPMEQP [Alkbh6.1, D(y/D)VPMEQP] | – | – |
| 51.2 | DYVPMEQPR [Alkbh6.2, D(y/D)VPMEQPR] | – | IC50 [3]: > 70 µM |
| 4.54 | ELQGLLEDE(l/R) (ELQGLLEDEL; not fully specified; printed as ELQGLLEDE(l/R); listed as Mus musculus) [Ccdc136] | – | IC50 [3]: > 70 µM |
| > 70 | EYLDLQTQ [Zfp236.1, E(y/D)LDLQTQ] | – | – |
| – | GFHGCIHEVL [Slit3] | > 70 | – |
| – | GYSVLHLAI [Nfkb1, G(y/D)SVLHLAI] | 1.61 | – |
| – | HYINMILPI [Ufsp2, HYINM(i/S)LPI] | – | IC50 [2]: < 0.0001 µM |
| – | HYLQGSNA [Fiz1, H(y/D)LQGSNA] | > 70 | – |
| – | HYLSSILRL [Pacs2, HYLS(s/A)ILRL] | 1.27 | – |
| – | KLQRQYRSPRL [Mast2] | – | IC50 [3]: 10.1 µM |

| IC50 [1] [µM] | Compound | IC50 [µM] | also measured |
| --- | --- | --- | --- |
| > 70 | KPALKSEEKTL [Stau1.2] | – | – |
| > 70 | LKSEEKTL [Stau1.1, LKSEEKT(l/P)] | – | – |
| > 70 | LYDVDAAF [Cpsf2, L(y/D)DVDAAF] | – | – |
| > 70 | LYEAGVTDE [Tpst2.2, L(y/D)EAGVTDE] | – | – |
| – | LYHTRPTAL [Kdm4b, L(y/D)HTRPTAL] | > 70 | – |
| – | LYVSKLNGP [Galnt1, L(y/D)VSKLNGP] | > 70 | – |
| 0.012 | LYYERIHKKML [Ugdh] | – | – |
| – | NYLLSLVAVML [Serinc1] | 20.9 | – |
| 6.26 | P(y/D)LTQYAIIM (PYLTQYAIIM; not fully specified; listed as Mus musculus) [Dhx8.4] | – | – |
| 1.65 | P(y/D)LTQYAIIML (PYLTQYAIIML; not fully specified; listed as Mus musculus) [Dhx8.1] | – | – |
| – | PALKSEEKTL [Stau1.3] | > 70 | – |
| – | PYKRLKAEPA [Prrc2a] | 0.261 | – |
| 1.42 | PYLTQYAII [Dhx8.3, P(y/D)LTQYAII] | – | – |
| 7.05 | QVFPGLME(l/R) (QVFPGLMEL; not fully specified; printed as QVFPGLME(l/R); listed as Mus musculus) [Atxn10.1] | – | IC50 [3]: > 70 µM |
| 5.11 | SEDKIKAIL [Rangap1] | – | – |
| > 70 | SWSSRRSLLG(l/R) (SWSSRRSLLGL; not fully specified; listed as Mus musculus) [9430016H08Rik] | – | IC50 [3]: > 70 µM |
| – | SYCEPALNQA [Ncdn] | > 70 | – |
| – | SYMLQALCI [Tnpo3, (sy/LD)MLQALCI] | 0.146 | – |
| > 70 | TTTPGGRPPYL [Sipa113] | – | – |
| – | VFPGLMEL [Atxn10.2, VFPGLME(l/R)] | – | IC50 [3]: > 70 µM |
| – | VYLTCRLEKPA [Gapdh] | > 70 | – |
| – | YYVPLLKRVP(l/S) (YYVPLLKRVPL; not fully specified; printed as YYVPLLKRVP(l/S); listed as Mus musculus) [Alms1.2] | – | IC50 [2]: 1.49 µM |

| Compound | IC50 [1] [µM] | IC50 [µM] | also measured |
| --- | --- | --- | --- |
| PYLTQYAI [Dhx8.2, P(y/D)LTQYAI] | > 70 | – | IC50 [3]: > 70 µM |
